Measured values taken from patent US20170008888A1 (KYORIN PHARMACEUTICAL CO., LTD., priority 2014, published 2017).

What was measured:
MV-4-11 cells [1] = assay: Combination study with Ara-C in MV-4-11 cells (CellTiter-Glo); assay type: cell-based, human; settings: 48 h
Experimental: Human biphenotypic B myelomonocytic leukemia MV-4-11 cells (ATCC, Manassas, Va.) treated with test compounds at 2e5 cells/ml in IMDM medium containing 10% (v/v) FBS (Life Technologies, Grand Island, N.Y.) and 1×Pen/Strep Amphotericin B (Lonza, Allendale, N.J.). The final concentration of a test compound was set at a concentration previously determined to be its EC50 and Y3 EC50 values, while the combination test drug (Arabinofuranosyl Cytidine (Ara-C))(Sigma, St. Louis, Mo.) was assayed in serially-diluted 9-point concentrations against this background. Cells were treated for 48 h at 37° C. in a humidified atmosphere at 5% CO2. Cell viability was then determined indirectly via ATP content using the CellTiter-Glo® luminescent cell viability assay (Promega, Madison, Wis.) as per the manufacturer's instructions as follows: Briefly, experimental plates were equilibrated at room temperature for 30 minutes. An equal volume of CellTiter-Glo reagent was added to each well and incubated for 15 minutes at room temperature. Luminescent signal was read using the Wallac 1420 Victor2 multilabel microplate reader (Perkin Elmer, Waltham, Mass.).

MV-4-11 cells [2] = assay: MV-4-11 proliferation EC50 assay (CellTiter-Glo); assay type: cell-based; settings: Homo sapiens, MV4-11, 48 h, read-out: MV-4-11 proliferation EC50, ave. ± S.D.
Experimental: Human biphenotypic B myelomonocytic leukemia MV-4-11 cells (ATCC, Manassas, Va.) were treated with test compounds at 2e5 cells/ml in IMDM medium containing 10% (v/v) FBS (Life Technologies, Grand Island, N.Y.) and 1×Pen/Strep Amphotericin B (Lonza, Allendale, N.J.). Compounds were tested at 25 μM down by ⅓ in a 9 point serial dilution series. Cells were incubated for 48 h at 37° C. in a humidified atmosphere at 5% CO2. MV-4-11 cell proliferation was then indirectly determined via cellular ATP content using the CellTiter-Glo® Luminescent Cell Viability Assay (Promega, Madison, Wis.) as per the manufacturer's instructions. Briefly, experimental plates were equilibrated at room temperature for 30 minutes. An equal volume of CellTiter-Glo® reagent was added to each well and incubated for 15 minutes at room temperature. Luminescent signal was read using the Wallac 1420 Victor^2 multilabel microplate reader (Perkin Elmer, Waltham, Mass.). EC50 values were determined using GraphPad Prism software v5.04.

ERK5 = target: T1, ERK5 (Homo sapiens, UniProt Q13164); assay: Probe-based (AX9989 acyl phosphate ATP probe) kinase profiling in Jurkat lysate: ERK5; assay type: binding
T1 construct: screened for activity against several kinases in Jurkat cells; endogenous in cells; host or cells: Jurkat cell lysate
T1 sequence (Q13164 whole entry): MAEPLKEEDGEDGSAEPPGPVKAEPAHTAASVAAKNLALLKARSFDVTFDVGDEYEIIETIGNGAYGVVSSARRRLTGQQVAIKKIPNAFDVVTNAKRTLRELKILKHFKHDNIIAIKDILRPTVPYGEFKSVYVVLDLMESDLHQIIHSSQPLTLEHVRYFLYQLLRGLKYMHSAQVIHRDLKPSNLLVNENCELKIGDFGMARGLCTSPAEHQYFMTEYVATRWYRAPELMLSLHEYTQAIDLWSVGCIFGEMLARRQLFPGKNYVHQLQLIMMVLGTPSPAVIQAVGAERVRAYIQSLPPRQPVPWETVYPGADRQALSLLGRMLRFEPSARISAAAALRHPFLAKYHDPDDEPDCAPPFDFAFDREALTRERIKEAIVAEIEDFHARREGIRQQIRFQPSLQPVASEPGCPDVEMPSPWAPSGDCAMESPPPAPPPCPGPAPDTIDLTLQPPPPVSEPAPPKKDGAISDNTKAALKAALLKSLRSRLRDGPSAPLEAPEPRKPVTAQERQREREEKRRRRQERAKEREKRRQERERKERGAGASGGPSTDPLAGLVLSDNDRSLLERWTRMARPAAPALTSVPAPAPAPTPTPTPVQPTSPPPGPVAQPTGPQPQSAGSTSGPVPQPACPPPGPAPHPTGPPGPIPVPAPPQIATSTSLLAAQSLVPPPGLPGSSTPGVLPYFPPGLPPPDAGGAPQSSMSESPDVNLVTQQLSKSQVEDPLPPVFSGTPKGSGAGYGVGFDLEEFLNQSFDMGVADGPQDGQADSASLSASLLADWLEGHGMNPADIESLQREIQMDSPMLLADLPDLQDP
Outline: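 ERK5 IC50 values came from percent inhibition at the screening concentration, measured as loss of LC/MS signal of probe-labelled active-site peptides. Compound was added for 15 min at room temperature to Jurkat lysate (5 mg/ml, 20 mM MnCl2) before labelling with AX9989 ATP acyl phosphate probe at 5 μM.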

ACK = target: T2, ACK (Homo sapiens, UniProt Q07912); assay: Probe-based (AX9989) kinase profiling in Jurkat lysate: ACK; assay type: binding; settings: screening concentration 10.0 μM; read-out: Kinase inhibition % at indicated screening concentration: ACK
T2 construct: screened for activity against several kinases in Jurkat cells; endogenous in cells; host or cells: Jurkat cell lysate
T2 sequence (Q07912 whole entry): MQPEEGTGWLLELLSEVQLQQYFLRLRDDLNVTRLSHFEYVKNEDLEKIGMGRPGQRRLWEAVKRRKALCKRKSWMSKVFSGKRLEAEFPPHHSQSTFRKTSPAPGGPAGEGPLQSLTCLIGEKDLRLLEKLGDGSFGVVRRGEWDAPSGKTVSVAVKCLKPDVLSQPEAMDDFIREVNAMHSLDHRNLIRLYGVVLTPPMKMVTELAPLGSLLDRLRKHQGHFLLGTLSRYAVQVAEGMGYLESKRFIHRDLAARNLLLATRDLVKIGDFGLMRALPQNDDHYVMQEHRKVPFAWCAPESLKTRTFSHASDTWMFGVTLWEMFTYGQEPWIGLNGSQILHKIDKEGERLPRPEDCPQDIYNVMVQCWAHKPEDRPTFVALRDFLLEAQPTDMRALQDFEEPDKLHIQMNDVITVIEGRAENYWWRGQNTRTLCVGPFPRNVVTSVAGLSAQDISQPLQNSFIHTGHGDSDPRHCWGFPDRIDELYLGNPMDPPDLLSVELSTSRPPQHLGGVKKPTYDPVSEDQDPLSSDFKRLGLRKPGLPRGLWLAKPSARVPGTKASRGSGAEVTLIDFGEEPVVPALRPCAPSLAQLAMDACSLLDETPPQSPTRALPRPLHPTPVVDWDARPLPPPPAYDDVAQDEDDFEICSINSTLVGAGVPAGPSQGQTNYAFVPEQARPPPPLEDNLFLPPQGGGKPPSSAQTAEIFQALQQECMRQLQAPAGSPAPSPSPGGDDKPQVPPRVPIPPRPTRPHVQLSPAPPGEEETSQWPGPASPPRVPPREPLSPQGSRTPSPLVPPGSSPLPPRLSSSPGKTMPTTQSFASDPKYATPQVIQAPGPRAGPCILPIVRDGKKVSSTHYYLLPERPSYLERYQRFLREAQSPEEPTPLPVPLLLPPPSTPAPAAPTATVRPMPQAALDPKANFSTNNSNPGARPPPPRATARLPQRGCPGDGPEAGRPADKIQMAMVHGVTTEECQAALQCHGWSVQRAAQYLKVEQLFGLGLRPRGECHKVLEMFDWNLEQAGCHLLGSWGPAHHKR
Outline: (§1)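 Jurkat lysate (50 mM HEPES pH 7.5, 150 mM NaCl, 0.1% Triton X-100, 20 mM MnCl2) pre-incubated 15 min with compound at room temperature, then labeled with 5 μM acyl phosphate ATP probe AX9989. Tryptic probe-labeled peptides streptavidin-captured and quantified by LC/MS; percent inhibition from decreased fragment intensity versus untreated.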

AurA = target: T3, AurA (Homo sapiens, UniProt O14965); assay: Probe-based (AX9989) kinase profiling in Jurkat lysate: AurA; assay type: binding; settings: screening concentration 10.0 μM; read-out: Kinase inhibition % at indicated screening concentration: AurA
T3 construct: screened for activity against several kinases in Jurkat cells; endogenous in cells; host or cells: Jurkat cell lysate
T3 sequence (O14965 1-403): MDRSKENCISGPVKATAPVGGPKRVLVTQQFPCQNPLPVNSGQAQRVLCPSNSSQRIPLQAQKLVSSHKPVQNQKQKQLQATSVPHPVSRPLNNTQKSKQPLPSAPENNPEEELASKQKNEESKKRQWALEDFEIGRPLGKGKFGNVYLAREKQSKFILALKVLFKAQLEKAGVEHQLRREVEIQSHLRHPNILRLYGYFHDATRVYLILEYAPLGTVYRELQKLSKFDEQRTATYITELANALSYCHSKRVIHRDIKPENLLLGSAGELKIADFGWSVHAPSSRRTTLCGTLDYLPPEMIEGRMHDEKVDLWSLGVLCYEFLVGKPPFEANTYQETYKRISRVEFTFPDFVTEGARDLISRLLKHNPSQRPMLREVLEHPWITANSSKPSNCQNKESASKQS
Outline: as §1

AMPKa1 or AMPKa2 = assay: Probe-based (AX9989) kinase profiling in Jurkat lysate: AMPKa1 or AMPKa2; assay type: binding; settings: screening concentration 10.0 μM
Outline: as §1

AurB or AurC = assay: Probe-based (AX9989) kinase profiling in Jurkat lysate: AurB or AurC; assay type: binding; settings: screening concentration 10.0 μM
Outline: as §1

TAO2 = target: T4, TAO2 (Homo sapiens, UniProt Q9UL54); assay: Probe-based (AX9989) kinase profiling in Jurkat lysate: TAO2; assay type: binding; settings: screening concentration 10.0 μM; read-out: Kinase inhibition % at indicated screening concentration: TAO2
T4 construct: screened for activity against several kinases in Jurkat cells; endogenous in cells; host or cells: Jurkat cell lysate
T4 sequence (Q9UL54 1-1235): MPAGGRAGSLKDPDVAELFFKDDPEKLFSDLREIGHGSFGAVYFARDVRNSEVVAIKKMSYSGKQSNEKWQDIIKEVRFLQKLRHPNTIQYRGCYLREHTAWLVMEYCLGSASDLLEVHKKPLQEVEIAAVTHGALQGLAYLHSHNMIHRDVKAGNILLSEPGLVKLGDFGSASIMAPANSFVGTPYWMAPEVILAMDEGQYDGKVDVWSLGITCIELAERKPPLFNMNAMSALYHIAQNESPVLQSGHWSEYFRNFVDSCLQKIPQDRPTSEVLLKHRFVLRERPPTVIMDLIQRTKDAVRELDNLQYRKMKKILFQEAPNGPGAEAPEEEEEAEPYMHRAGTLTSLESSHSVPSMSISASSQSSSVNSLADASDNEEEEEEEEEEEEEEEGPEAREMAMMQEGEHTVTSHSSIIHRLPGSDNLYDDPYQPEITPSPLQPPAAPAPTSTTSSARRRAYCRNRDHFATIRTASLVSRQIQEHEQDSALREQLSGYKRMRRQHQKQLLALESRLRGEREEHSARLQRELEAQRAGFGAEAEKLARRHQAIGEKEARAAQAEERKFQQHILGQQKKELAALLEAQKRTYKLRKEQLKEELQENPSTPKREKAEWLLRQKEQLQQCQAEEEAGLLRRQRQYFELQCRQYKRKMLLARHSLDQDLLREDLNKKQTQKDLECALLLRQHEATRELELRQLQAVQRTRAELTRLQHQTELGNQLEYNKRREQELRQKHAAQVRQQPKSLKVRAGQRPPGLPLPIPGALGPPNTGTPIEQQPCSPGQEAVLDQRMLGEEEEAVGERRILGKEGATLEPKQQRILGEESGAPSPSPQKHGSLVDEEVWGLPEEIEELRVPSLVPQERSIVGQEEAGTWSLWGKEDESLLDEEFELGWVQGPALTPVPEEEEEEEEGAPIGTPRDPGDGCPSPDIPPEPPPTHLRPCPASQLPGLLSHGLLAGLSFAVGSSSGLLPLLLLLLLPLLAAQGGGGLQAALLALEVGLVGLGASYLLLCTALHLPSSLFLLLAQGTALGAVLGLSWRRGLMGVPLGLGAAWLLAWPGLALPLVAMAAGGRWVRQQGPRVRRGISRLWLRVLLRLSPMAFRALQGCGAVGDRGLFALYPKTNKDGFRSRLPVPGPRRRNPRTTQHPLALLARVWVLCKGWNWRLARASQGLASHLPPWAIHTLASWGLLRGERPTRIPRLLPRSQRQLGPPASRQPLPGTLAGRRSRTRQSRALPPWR
Outline: as §1

ABL or ARG = assay: Probe-based (AX9989) kinase profiling in Jurkat lysate: ABL or ARG; assay type: binding; settings: screening concentration 10.0 μM
Outline: as §1

JAK1 = target: T5, JAK1 (Homo sapiens, UniProt P23458); assay: Probe-based (AX9989) kinase profiling in Jurkat lysate: JAK1; assay type: binding; settings: screening concentration 10.0 μM; read-out: Kinase inhibition % at indicated screening concentration: JAK1
T5 construct: screened for activity against several kinases in Jurkat cells; endogenous in cells; host or cells: Jurkat cell lysate
T5 sequence (P23458 whole entry): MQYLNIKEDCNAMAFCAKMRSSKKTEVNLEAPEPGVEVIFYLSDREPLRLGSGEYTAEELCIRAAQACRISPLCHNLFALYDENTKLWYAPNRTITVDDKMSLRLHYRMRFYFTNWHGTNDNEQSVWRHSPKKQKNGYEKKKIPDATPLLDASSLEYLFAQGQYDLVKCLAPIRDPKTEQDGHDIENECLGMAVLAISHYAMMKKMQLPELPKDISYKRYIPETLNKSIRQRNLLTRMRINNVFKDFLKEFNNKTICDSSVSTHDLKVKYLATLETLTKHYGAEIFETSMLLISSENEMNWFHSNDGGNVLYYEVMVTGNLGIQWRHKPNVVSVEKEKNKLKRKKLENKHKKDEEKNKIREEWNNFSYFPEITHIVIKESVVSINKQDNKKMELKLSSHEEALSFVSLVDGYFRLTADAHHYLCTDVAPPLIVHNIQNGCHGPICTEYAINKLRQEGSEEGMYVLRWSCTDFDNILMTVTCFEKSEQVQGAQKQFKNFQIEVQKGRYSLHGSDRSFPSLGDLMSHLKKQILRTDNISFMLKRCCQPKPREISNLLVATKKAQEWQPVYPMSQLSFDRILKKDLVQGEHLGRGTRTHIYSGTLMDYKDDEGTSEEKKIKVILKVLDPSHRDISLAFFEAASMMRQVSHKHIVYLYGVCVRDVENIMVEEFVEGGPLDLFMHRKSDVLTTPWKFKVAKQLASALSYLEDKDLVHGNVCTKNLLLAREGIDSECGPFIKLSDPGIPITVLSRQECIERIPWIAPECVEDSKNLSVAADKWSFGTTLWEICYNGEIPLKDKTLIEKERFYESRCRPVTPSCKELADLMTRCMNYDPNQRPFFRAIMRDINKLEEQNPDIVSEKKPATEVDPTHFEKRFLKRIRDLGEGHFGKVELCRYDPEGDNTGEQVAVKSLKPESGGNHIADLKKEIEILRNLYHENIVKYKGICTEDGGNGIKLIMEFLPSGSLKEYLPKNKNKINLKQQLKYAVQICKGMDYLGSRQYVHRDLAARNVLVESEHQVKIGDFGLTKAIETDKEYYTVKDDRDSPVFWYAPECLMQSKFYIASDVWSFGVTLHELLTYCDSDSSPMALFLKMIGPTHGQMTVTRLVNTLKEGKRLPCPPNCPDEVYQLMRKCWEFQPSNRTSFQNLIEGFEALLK
Outline: as §1

SMILES	EC50 (MV-4-11 cells [1]; read-out: EC50 (μM) of Ara-C in combination with a fixed concentration of compound 61 at EC50) [µM]	EC50 (MV-4-11 cells [1]; read-out: EC50 (μM) of Ara-C in combination with a fixed concentration of compound 61 at ⅓ EC50) [µM]	EC50 (MV-4-11 cells [1]; read-out: EC50 (μM) of Ara-C, compound 61 not present) [µM]	EC50 (MV-4-11 cells [2]) [nM]	IC50 (ERK5; calculated from percent inhibition of AX9989 labeling and the screening concentration, Jurkat lysate) [nM]	inhibition at 10 µM (ERK5; screening concentration 10.0 μM, read-out: Kinase inhibition % at indicated screening concentration: ERK5) [%]	inhibition at 10 µM (ACK) [%]	inhibition at 10 µM (AurA) [%]	Kinase inhibition % at indicated screening concentration: AMPKa1 or AMPKa2 (AMPKa1 or AMPKa2)	Kinase inhibition % at indicated screening concentration: AurB or AurC (AurB or AurC)	inhibition at 10 µM (TAO2) [%]	Kinase inhibition % at indicated screening concentration: ABL or ARG (ABL or ARG)	inhibition at 10 µM (JAK1) [%]
Nc1ccn([C@@H]2O[C@H](CO)[C@@H](O)[C@@H]2O)c(=O)n1 [Ara-C]	0.108	0.265	0.353										
CN1C(=O)c2ccccc2N(C)c2cc(Nc3ccc(N4CCC(O)CC4)cn3)ncc21 [Compound 4]				60	> 500	75 to 90	75 to 90	> 90	C (C is >50% to ≦75%)	A (A>90%)	50 to 75	C (C is >50% to ≦75%)	50 to 75
